Compound | melting point [°C]
CCc1nc2c(NC(C)=O)nc3ccccc3c2n1CCCCNS(C)(=O)=O [Example 1, N-(2-Ethyl-1-{4-[(methylsulfonyl)amino]butyl}-1H-imidazo[4,5-c]quinolin-4-yl)acetamide] | 90 to 91
CCc1nc2c(NC(=O)c3ccccc3)nc3ccccc3c2n1CCCCNS(C)(=O)=O [Example 2, N-(2-Ethyl-1-{4-[(methylsulfonyl)amino]butyl}-1H-imidazo[4,5-c]quinolin-4-yl)benzamide] | 249 to 250
CCOC(=O)Nc1nc2ccccc2c2c1nc(CC)n2CCCCNS(C)(=O)=O [Example 3, Ethyl 2-Ethyl-1-{4-[(methylsulfonyl)amino]butyl}-1H-imidazo[4,5-c]quinolin-4-ylcarbamate] | 185 to 187
CCc1nc2c(NC(=O)C(C)C)nc3ccccc3c2n1CCCCNS(C)(=O)=O [Example 4, N-(2-Ethyl-1-{4-[(methylsulfonyl)amino]butyl}-1H-imidazo[4,5-c]quinolin-4-yl)-2-methylpropanamide] | 122 to 124
CCc1nc2c(NC(=O)C(C)(C)C)nc3ccccc3c2n1CCCCNS(C)(=O)=O [Example 5, N-(2-Ethyl-1-{4-[(methylsulfonyl)amino]butyl}-1H-imidazo[4,5-c]quinolin-4-yl)-2,2-dimethylpropanamide] | 220 to 221
CCCOC(=O)Nc1nc2ccccc2c2c1nc(CC)n2CCCCNS(C)(=O)=O [Example 6, Propyl 2-Ethyl-1-{4-[(methylsulfonyl)amino]butyl}-1H-imidazo[4,5-c]quinolin-4-ylcarbamate] | 155 to 157
CCCCOC(=O)Nc1nc2ccccc2c2c1nc(CC)n2CCCCNS(C)(=O)=O [Example 7, Butyl 2-Ethyl-1-{4-[(methylsulfonyl)amino]butyl}-1H-imidazo[4,5-c]quinolin-4-ylcarbamate] | 164 to 166
